# Experimental data as given in patent US20230346815A1, “LMP7-SELECTIVE INHIBITORS FOR THE TREATMENT OF BLOOD DISORDERS AND SOLID TUMORS” (Merck Patent GmbH, priority 2020, published 2023).
# Entries after “also recorded” stand apart in the source; their conditions may differ.
# What was measured:
# Caspase-3/-7 activity = experiment: Caspase 3/7 activity in MM.1S xenograft tumors in vivo; parameters: species or system mouse; settings: compound 9 applied once per os 10 mg/kg, vs vehicle control and bortezomib, carfilzomib, ixazomib single dose, FIG. 7
# Experimental: MM.1S xenograft tumors samples from the same experiment described in Example 6 were used for assessment of Caspase-3/-7 activity as an indication of tumor cell apoptosis. 50 μg of tumor lysate protein in a total volume of 50 μL was mixed with the Caspase-Glo®3/7 Reagent (Promega) in 96-well plates according to the manufacturer's instruction. Luminescence was measured using an Envision 2104 plate reader (PerkinElmer).
# MM.1S = experiment: Efficacy in the multiple myeloma xenograft model MM.1S; type: in vivo, mouse; settings: t(14;16)-positive MM.1S xenograft; compound 9 10 mg/kg per os once daily; vs bortezomib, ixazomib, carfilzomib 3 mg/kg i.v. twice per week; FIG. 4
# Experimental: The human multiple myeloma cell line MM.1S was obtained from the ATCC. 100 μL of a suspension of 5 million cells in PBS was injected per mouse. Bortezomib, ixazomib and compound 9 were formulated and applied as described in Example 1. Carfilzomib was formulated as described in Example 1 and applied intravenously (i.v.) to mice at a dose of 3 mg/kg twice per week.
# RPMI 8826 = experiment: Efficacy in the multiple myeloma xenograft model RPMI 8826; type: in vivo, mouse; settings: t(14;16)-positive RPMI 8826 xenograft; compound 9 10 mg/kg per os once daily; vs bortezomib, carfilzomib, ixazomib; FIG. 5
# Experimental: (§1) The human multiple myeloma cell line RPMI 8826 was obtained from the ATCC. 100 μL of a suspension of 5 million cells in PBS mixed 1:1 with Matrigel was injected per mouse. Bortezomib, carfilzomib, ixazomib and compound 9 were formulated and applied as described in Example 1.
# NCI-H929 = experiment: Efficacy in the multiple myeloma xenograft model NCI-H929; type: in vivo, mouse; settings: t(4;14)-positive NCI-H929 xenograft, compound 9 10 mg/kg per os once daily
# Experimental: as §1, with “NCI-H929” for “RPMI 8826”, “American Type Culture Collection (ATCC).” for “ATCC.”, “carfilzomib” for “carfilzomib, ixazomib”, “1. Mean tumor volume and SEM are indicated.” for “1.”
# NCI-H929 xenograft tumors were established as described in Example 2. Compound 9 and ixazomib were formulated and applied as described in Example 1.
# LMP7 [1] = biological target: T1, LMP7 (Homo sapiens, UniProt P20618+P28062); experiment: LMP7 activity in MM.1S xenograft tumors in vivo, cleavage of (Ac-ANW)2R110; parameters: from tissue; host or cells: MM.1S xenograft tumor lysate (tumors grown in mice); species or system mouse; settings: compound 9 applied once per os 10 mg/kg, vs control and bortezomib, carfilzomib, ixazomib single dose, FIG. 6
# Experimental: MM.1S xenograft tumors were established as described in Example 4. Compound 9, bortezomib, carfilzomib and ixazomib were formulated as described in Example 1. Compound 9 was applied once per os to mice at a dose of 10 mg/kg. Bortezomib was applied once i.v. to mice at a dose of 0.5 mg/kg. Ixazomib was applied once per os to mice at a dose of 3 mg/kg. Carfilzomib was applied once i.v. at a dose of 3 mg/kg. MM1S tumors were collected immediately following mouse euthanasia and lysed as described previously (Buchstaller et al., 2019). For assessment of LMP7 activity, 10 μg of tumor lysate protein in a total volume of 50 μL was mixed in 96-well plates with 50 μl of a buffer containing 100 mM HEPES pH 7.6, 60 mM MgSO4, 1 mM EDTA, 40 μg/ml digitonin and the fluorogenic LMP7 substrate (Ac-ANW)2R110 (from Biomol) at a final concentration of 10 μM. Plates were then shaken briefly, incubated for 60 min at 37° C. and then centrifuged at 300×g. Fluorescence (excitation 485 nm, emission 535 nm) was measured using an EnVision 2104 plate reader (PerkinElmer).
# OPM-2 = experiment: Efficacy in the multiple myeloma xenograft model OPM-2; type: in vivo, mouse; settings: t(4;14)-positive OPM-2 xenograft; compound 9 10 mg/kg per os once daily; vs bortezomib 0.5 mg/kg i.v., ixazomib 3 mg/kg per os, carfilzomib 2 mg/kg i.p., each twice per week; FIG. 1
# Experimental: The human multiple myeloma cell line OPM-2 was obtained from the German Collection of Microorganisms and Cell Cultures GmbH (DSMZ). 100 μL of a suspension of 5 million cells in phosphate-buffered saline (PBS) mixed 1:1 with Matrigel (Becton Dickinson) was injected per mouse. Bortezomib was formulated in Mannitol (Merck KGaA) in 0.9% NaCl and applied intravenously (i.v.) to mice at a dose of 0.5 mg/kg twice per week. Ixazomib was formulated in 5% KLEPTOSE® in water and applied orally (per os) to mice at a dose of 3 mg/kg twice per week. Carfilzomib was formulated in 5% KLEPTOSE® (AppliChem) in 50 mM sodium citrate buffer and applied by intraperitoneal (i.p.) injection to mice at a dose of 2 mg/kg twice per week. Compound 9 was formulated in 0.5% METHOCEL™ Premium K4M (Colorcon) and 0.25% Tween® 20 in PBS at applied per os to mice once daily at a dose of 10 mg/kg. Mean tumor volume and standard error of the mean (SEM) are indicated.
# LMP7 [2] = biological target: T1, LMP7; settings: as previously described, Singh et al., 2011; cited from earlier work
SMILES,Caspase-3/-7 activity (induction of apoptosis) in tumor lysate (Caspase-3/-7 activity),in vivo anti-tumor activity (mean tumor volume) (MM.1S),in vivo anti-tumor activity (mean tumor volume) (RPMI 8826),"in vivo anti-tumor activity (mean tumor volume) (NCI-H929; vs bortezomib and carfilzomib, FIG. 2)","in vivo anti-tumor activity (mean tumor volume) (NCI-H929; vs ixazomib 3 mg/kg per os twice per week, FIG. 3)",LMP7 activity in tumor lysate (LMP7 [1]),in vivo anti-tumor activity (mean tumor volume) (OPM-2),LMP7 selectivity (LMP7 [2]) [fold]
"O=C(N[C@@H](Cc1coc2ccccc12)B(O)O)[C@@H]1C[C@H]2CC[C@@H]1O2 [Compound 9, [(1R)-2-(1-benzofuran-3-yl)-1-{[(1S,2R,4R)-7-oxabicyclo[2.2.1]heptan-2-yl]formamido}ethyl]boronic acid]",longer than compared to the pan-proteasome inhibitors; also recorded: significant induction of apoptosis,"increased anti-tumor activity of compound 9 as compared to bortezomib and carfilzomib, and comparable activity as compared to ixazomib","increased in vivo activity of compound 9 as compared to ixazomib and carfilzomib, and comparable activity when compared to bortezomib",increased efficacy as compared to bortezomib and carfilzomib,comparable activity of compound 9 as compared to the pan-proteasome inhibitor ixazomib,stronger and more prolonged than for the other pan-proteasome inhibitors tested; also recorded: significant reduction of enzymatic function of LMP7,"increased efficacy as compared to bortezomib, carfilzomib, and ixazomib",–
CC1=C(C(=O)N[C@H](C)C(=O)N[C@@H](Cc2c[nH]c3ccccc23)C(=O)N[C@@H](Cc2ccccc2)C(=O)[C@@]2(C)CO2)Cc2ccccc21 [PR-924],–,–,–,–,–,–,–,100
